According to patent publication US9273057B2 (Bristol-Myers Squibb Company, priority 2012, dated 2016):
Structures can show the parent of a compound that is named as a salt.

Target: CK2A1 (CK2α/β) (Homo sapiens, UniProt P68400)
Assay: CK2 kinase assay, CK2A1 (CK2α/β)
Format: biochemical
Conditions: Table A; read-out: CK2A1 (CK2α/β) (IC50)

Sequence of CK2A1 (CK2α/β) (P68400 whole entry, species assumed): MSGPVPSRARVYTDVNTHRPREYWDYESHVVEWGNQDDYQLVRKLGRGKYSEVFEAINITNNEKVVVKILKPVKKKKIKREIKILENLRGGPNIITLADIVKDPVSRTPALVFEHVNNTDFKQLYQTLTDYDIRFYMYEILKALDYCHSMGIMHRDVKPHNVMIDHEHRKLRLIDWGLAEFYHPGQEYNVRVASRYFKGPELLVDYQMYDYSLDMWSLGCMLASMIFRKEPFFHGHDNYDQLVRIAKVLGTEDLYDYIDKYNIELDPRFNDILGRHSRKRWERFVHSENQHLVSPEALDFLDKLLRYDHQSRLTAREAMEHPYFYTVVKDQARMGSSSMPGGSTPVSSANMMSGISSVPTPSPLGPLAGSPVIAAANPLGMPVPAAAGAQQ
Sequence of CK2A1 (CK2α/β) (P67870 whole entry partner, species assumed): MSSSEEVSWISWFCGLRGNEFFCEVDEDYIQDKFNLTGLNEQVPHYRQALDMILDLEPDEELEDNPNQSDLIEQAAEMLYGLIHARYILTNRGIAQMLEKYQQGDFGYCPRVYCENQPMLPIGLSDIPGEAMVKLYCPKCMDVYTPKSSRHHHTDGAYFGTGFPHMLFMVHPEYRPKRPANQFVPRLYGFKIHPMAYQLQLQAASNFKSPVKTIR

Structure (SMILES) | IC50 [nM]
CC(=O)OC(C)(C)C(=O)N1CCC(c2cc(C#N)cc(Nc3nc(NC4CC4)c4ncc(C#N)n4n3)c2Cl)CC1 [Example 228, 2-(4-(2-chloro-5-cyano-3-((7-cyano-4-(cyclopropylamino)imidazo[2,1-f][1,2,4]triazin-2-yl)amino)phenyl)-1-piperidinyl)-1,1-dimethyl-2-oxoethyl acetate] | 0.51
CCNc1nc(Nc2cc(C#N)cc(N3CC[C@@H](NC(=O)OC)[C@H](OC(=O)[C@@H](N)Cc4cnc[nH]4)C3)c2Cl)nn2c(C#N)cnc12 [Example 809, (S)-(3R,4R)-1-(2-chloro-5-cyano-3-((7-cyano-4-(ethylamino)imidazo[2,1-f][1,2,4]triazin-2-yl)amino)phenyl)-4-((methoxycarbonyl)amino)piperidin-3-yl 2-amino-3-(1H-imidazol-5-yl)propanoate dihydrochloride] | 1
N#Cc1cc(Nc2nc(NC3CC3)c3ncc(C#N)n3n2)c(Cl)c(C2CCN(C3CCC3=O)CC2)c1 (stereo not shown) [Example 644, 2-((2-chloro-5-cyano-3-(1-(2-oxocyclobutyl)piperidin-4-yl)phenyl)amino)-4-(cyclopropylamino)imidazo[2,1-f][1,2,4]triazine-7-carbonitrile] | 0.85
CC(C)(C)NCc1cc(C#N)cc(Nc2nc(NC3CC3)c3ncc(C#N)n3n2)c1Cl [Example 468, 2-({3-[(tert-butylamino)methyl]-2-chloro-5-cyanophenyl}amino)-4-(cyclopropylamino)imidazo[2,1-f][1,2,4]triazine-7-carbonitrile] | 0.3
COC(=O)N[C@@H]1C[C@@H]2CN(c3cc(C#N)cc(Nc4nc(NC5CC5)c5ncc(C#N)n5n4)c3Cl)C[C@@H]2C1 [Example 13, (+/−) methyl ((3aR,5r,6aS)-2-(2-chloro-5-cyano-3-((7-cyano-4-(cyclopropylamino)imidazo [2,1-f][1,2,4]triazin-2-yl)amino)phenyl)octahydro-cyclopenta[c]pyrrol-5-yl)carbamate] | 1.7
COC(=O)N[C@H]1CCN(c2cc(C#N)cc(Nc3nc(NC4CC4)c4ncc(C#N)n4n3)c2Cl)C[C@@H]1NCC(F)F [Example 748, methyl ((3S,4S)-1-(2-chloro-5-cyano-3-((7-cyano-4-(cyclopropylamino)imidazo[2,1-f][1,2,4]triazin-2-yl)amino)phenyl)-3-((2,2-difluoroethyl)amino)piperidin-4-yl)carbamate] | 1.4
CN(CCN)c1cc(Cl)c(Nc2nc(NC3CC3)c3ncc(C#N)n3n2)cc1C#N [Example 412, 2-((4-((2-aminoethyl)(methyl)amino)-2-chloro-5-cyanophenyl)amino)-4-(cyclopropylamino)imidazo[2,1-f][1,2,4]triazine-7-carbonitrile] | 0.43
CCNc1nc(Nc2cc(C#N)cc(N3CCC(N(C(=O)OC)C4COC4)CC3)c2Cl)nn2c(C#N)cnc12 [Example 366, methyl (1-(2-chloro-5-cyano-3-((7-cyano-4-(ethylamino)imidazo[2,1-f][1,2,4]triazin-2-yl)amino)phenyl)piperidin-4-yl)(oxetan-3-yl)carbamate] | 0.78
N#Cc1cc(Nc2nc(NC3CC3)c3ncc(C#N)n3n2)c(Cl)cc1CCCN1CC(O)C1 [Example 569, 2-((2-chloro-5-cyano-4-(3-(3-hydroxyazetidin-1-yl)propyl)phenyl)amino)-4-(cyclopropylamino)imidazo[2,1-f][1,2,4]triazine-7-carbonitrile] | 0.7
N#Cc1cc(Nc2nc(NC3CC3)c3ncc(C#N)n3n2)c(Cl)c(C2(F)COC2)c1 [Example 660, 2-((2-chloro-5-cyano-3-(3-fluorooxetan-3-yl)phenyl)amino)-4-(cyclopropylamino)imidazo[2,1-f][1,2,4]triazine-7-carbonitrile] | 0.35
COc1ccc(CN2CCN(c3cc(C#N)cc(Nc4nc(NC5CC5)c5ncc(C#N)n5n4)c3Cl)C(=O)C2)cc1 [Example 631, 2-((2-chloro-5-cyano-3-(4-(4-methoxybenzyl)-2-oxopiperazin-1-yl)phenyl)amino)-4-(cyclopropylamino)imidazo[2,1-f][1,2,4]triazine-7-carbonitrile] | 1.1
CCNc1nc(Nc2cc(C#N)cc(N3CC[C@@H](NC(=O)OC)[C@H](NC4COC4)C3)c2Cl)nn2c(C#N)cnc12 [Example 746, methyl ((3R,4R)-1-(2-chloro-5-cyano-3-((7-cyano-4-(ethylamino)imidazo[2,1-f][1,2,4]triazin-2-yl)amino)phenyl)-3-(oxetan-3-ylamino)piperidin-4-yl)carbamate] | 1.36
CCNc1nc(Nc2cc(C#N)cc(N3CC[C@@H]4[C@@H](C3)OC(=O)N4C3CCOCC3)c2Cl)nn2c(C#N)cnc12 [Example 845] | 0.92
N#CCC(=O)N1CCC(c2cc(C#N)cc(Nc3nc(NC4CC4)c4ncc(C#N)n4n3)c2Cl)CC1 [Example 230, 2-((2-chloro-5-cyano-3-(1-(cyanoacetyl)-4-piperidinyl)phenyl)amino)-4-(cyclopropylamino)imidazo[2,1-f][1,2,4]triazine-7-carbonitrile] | 1.04
CCN(C1CCN(c2cc(C#N)cc(Nc3nc(NC4CC4)c4ncc(C#N)n4n3)c2Cl)CC1)C1CC(=O)N(C)C1 (stereo not shown) [Example 715, 2-[(2-chloro-5-cyano-3-{4-[ethyl(1-methyl-5-oxopyrrolidin-3-yl)amino]piperidin-1-yl}phenyl)amino]-4-(cyclopropylamino)imidazo [2,1-f][1,2,4]triazine-7-carbonitrile] | 10.8

Further lines, results first:

IC50 [nM] | Structure (SMILES)
1.19 | COC(=O)NC1CCN(c2cc(C#N)cc(Nc3nc(NC4CC4)c4ncc(C#N)n4n3)c2Cl)CC1 [Example 146, methyl (1-(2-chloro-5-cyano-3-((7-cyano-4-(cyclopropylamino)imidazo [2,1-f][1,2,4]triazin-2-yl)amino)phenyl)-4-piperidinyl)carbamate]
1 | C[C@@H]1CN(c2cc(C#N)cc(Nc3nc(NC4CC4)c4ncc(C#N)n4n3)c2Cl)C[C@H](C)N1C [Example 24, (+/−) 2-((2-chloro-5-cyano-3-((3R,5S)-3,4,5-trimethyl-1-piperazinyl)phenyl)amino)-4-(cyclopropylamino)imidazo [2,1-f][1,2,4]triazine-7-carbonitrile]
1.07 | N#Cc1cc(CNC2COC2)c(Cl)c(Nc2nc(NC3CC3)c3ncc(C#N)n3n2)c1 [Example 479, 2-[(2-chloro-5-cyano-3-{[(oxetan-3-yl)amino]methyl}phenyl)amino]-4-(cyclopropylamino)imidazo[2,1-f][1,2,4]triazine-7-carbonitrile]
0.63 | CC(=O)N1CCC[C@H]1C(=O)N1CCN(c2cc(C#N)cc(Nc3nc(NC4CC4)c4ncc(C#N)n4n3)c2Cl)CC1 [Example 83, 2-((3-(4-(1-acetyl-L-prolyl)-1-piperazinyl)-2-chloro-5-cyanophenyl)amino)-4-(cyclopropylamino) imidazo[2,1-f][1,2,4] triazine-7-carbonitrile]
0.71 | COCC(C)N1CCN(c2cc(C#N)cc(Nc3nc(NC4CC4)c4ncc(C#N)n4n3)c2Cl)CC1 (racemic) [Example 64, (+/−) 2-((2-chloro-5-cyano-3-(4-(2-methoxy-1-methylethyl)-1-piperazinyl)phenyl)amino)-4-(cyclopropylamino) imidazo[2,1-f][1,2,4] triazine-7-carbonilrile]
4.33 | N#Cc1cc(Nc2nc(NC3CC3)c3ncc(C#N)n3n2)c(Cl)c(N2CCN(C3CN(C(=O)C4CCC(=O)N4)C3)CC2)c1 (stereo not shown) [Example 506, 2-[(2-chloro-5-cyano-3-{4-[1-(5-oxopyrrolidine-2-carbonyl)azetidin-3-yl]piperazin-1-yl}phenyl)amino]-4-(cyclopropylamino)imidazo[2,1-f][1,2,4]triazine-7-carbonitrile]
9.85 | N#Cc1cc(Nc2nc(NC3CC3)c3ncc(C#N)n3n2)c(Cl)c(N2CCNCC2=O)c1 [Example 628, 2-((2-chloro-5-cyano-3-(2-oxopiperazin-1-yl)phenyl)amino)-4-(cyclopropylamino)imidazo[2,1-f][1,2,4]triazine-7-carbonitrile]
0.32 | C[C@]1(N)CCN(c2cc(C#N)cc(Nc3nc(NC4CC4)c4ncc(C#N)n4n3)c2Cl)C[C@@H]1O [Example 36, 2-((3-((3S,4S)-4-amino-3-hydroxy-4-methyl-1-piperidinyl)-2-chloro-5-cyanophenyl)amino)-4-(cyclopropylamino)imidazo [2,1-f][1,2,4]triazine-7-carbonitrile]
0.51 | N#Cc1cc(Nc2nc(NC3CC3)c3ncc(C#N)n3n2)c(Cl)c(N2CCN(CC3COCCN3)CC2)c1 (stereo not shown) [Example 598, 2-({2-chloro-5-cyano-3-[4-(morpholin-3-ylmethyl)piperazin-1-yl]phenyl}amino)-4-(cyclopropylamino)imidazo [2,1-f][1,2,4]triazine-7-carbonitrile]
0.77 | N#Cc1cc(Nc2nc(NC3CC3)c3ncc(C#N)n3n2)c(Cl)c(N2CCC3NCCC3C2)c1 (racemic) [Example 442, 2-((2-chloro-5-cyano-3-(hexahydro-1H-pyrrolo[3,2-c]pyridin-5(6H)-yl)phenyl)amino)-4-(cyclopropylamino)imidazo[2,1-f][1,2,4]triazine-7-carbonitrile]
1.15 | N#Cc1cnc2c(NC3CC3)nc(Nc3cc(OC(F)F)cc(N4CCN(C5CNC5)CC4)c3Cl)nn12 [Example 560, 2-((3-(4-(azetidin-3-yl)piperazin-1-yl)-2-chloro-5-(difluoromethoxy)phenyl)amino)-4-(cyclopropylamino)imidazo[2,1-f][1,2,4]triazine-7-carbonitrile]
0.42 | N#Cc1cc(Nc2nc(NC3CC3)c3ncc(C#N)n3n2)c(Cl)c(N2CCN(C3COC3)CC2)c1 [Example 105, 2-(2-chloro-5-cyano-3-(4-(oxetan-3-yl)piperazin-1-yl)phenylamino)-4-(cyclopropylamino) imidazo[1,2-f][1,2,4] triazine-7-carbonitrile]
2.87 | N#Cc1cc(Nc2nc(NC3CC3)c3ncc(C#N)n3n2)c(Cl)c(N2CC[C@H]3NC(=O)CO[C@@H]3C2)c1 (racemic) [Example 310, (+/−)-2-((2-chloro-5-cyano-3-((4aR,8aR)-2-oxohexahydro-1H-pyrido[3,4-b][1,4]oxazin-6(7H)-yl)phenyl)amino)-4-(cyclopropylamino)imidazo[2,1-f][1,2,4]triazine-7-carbonitrile, 2HCl]
